Results: patent publication US10695337B2, “Piperidin-4-yl azetidine derivatives as JAK1 inhibitors” (Incyte Corporation, priority 2010, dated 2020)

Molecular target: human JAK1 (a.a. 837-1142)
Experiment: In vitro JAK kinase assay (HTRF, phosphorylation of a biotinylated peptide), JAK1
Format: biochemical
Details: measured at 1 mM ATP; JAK2 IC50 / JAK1 IC50
In short: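 N-terminally His-tagged catalytic domains, baculovirus-expressed in insect cells and purified, were used as enzyme. Reactions ran 1 hr at room temperature and were stopped with a mix of 45 mM EDTA, 300 nM SA-APC and 6 nM Eu-Py20. The HTRF signal was read after 40 min of antibody binding.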

IC50 Ratio JAK2/JAK1 | Structure (SMILES)
2.2 | N#CCC1(n2cc(-c3ncnc4[nH]ccc34)cn2)CN(C2CCN(C(=O)C3CCc4ccccc4C3)CC2)C1 (centres unmarked) [Example 97, {3-[4-(7H-pyrrolo[2,3-d]pyrimidin-4-yl)-1H-pyrazol-1-yl]-1-[1-(1,2,3,4-tetrahydronaphthalen-2-ylcarbonyl)piperidin-4-yl]azetidin-3-yl}acetonitrile]
3.7 | N#CCC1(n2cc(-c3ncnc4[nH]ccc34)cn2)CN(C2CCN(C(=O)C3CCC(C(F)(F)F)CC3)CC2)C1 (centres unmarked) [Example 98, [3-[4-(7H-pyrrolo[2,3-d]pyrimidin-4-yl)-1H-pyrazol-1-yl]-1-(1-{[4-(trifluoromethyl)cyclohexyl]carbonyl}piperidin-4-yl)azetidin-3-yl] acetonitrile]
6.6 | N#CCC1(n2cc(-c3ncnc4[nH]ccc34)cn2)CN(C2CCN(C(=O)C3CCC(F)(F)CC3)CC2)C1 [Example 100, {1-{1-[(4,4-difluorocyclohexyl)carbonyl]piperidin-4-yl}-3-[4-(7H-pyrrolo[2,3-d]pyrimidin-4-yl)-1H-pyrazol-1-yl]azetidin-3-yl}acetonitrile]
8.3 | N#CCC1(n2cc(-c3ncnc4[nH]ccc34)cn2)CN(C2CCN(C(=O)C3CCCC3)CC2)C1 [Example 101, {1-[1-(cyclopentylcarbonyl)piperidin-4-yl]-3-[4-(7H-pyrrolo[2,3-d]pyrimidin-4-yl)-1H-pyrazol-1-yl]azetidin-3-yl}acetonitrile]
7.2 | N#CCC1(n2cc(-c3ncnc4[nH]ccc34)cn2)CN(C2CCN(C(=O)C3CCC(c4ccc(Cl)cc4)CC3)CC2)C1 (centres unmarked) [Example 105, {1-(1-{[4-(4-chlorophenyl)cyclohexyl]carbonyl}piperidin-4-yl)-3-[4-(7H-pyrrolo[2,3-d]pyrimidin-4-yl)-1H-pyrazol-1-yl]azetidin-3-yl}acetonitrile]
1.1 | N#CCC1(n2cc(-c3ncnc4[nH]ccc34)cn2)CN(C2CCN(C(=O)Cc3ccccc3)CC2)C1 [Example 109, {1-[1-(phenylacetyl)piperidin-4-yl]-3-[4-(7H-pyrrolo[2,3-d]pyrimidin-4-yl)-1H-pyrazol-1-yl]azetidin-3-yl} acetonitrile]
1.6 | N#CCC1(n2cc(-c3ncnc4[nH]ccc34)cn2)CN(C2CCN(C(=O)C3(c4ccccc4)CC3)CC2)C1 [Example 110, {1-{1-[(1-phenylcyclopropyl)carbonyl]piperidin-4-yl}-3-[4-(7H-pyrrolo[2,3-d]pyrimidin-4-yl)-1H-pyrazol-1-yl]azetidin-3-yl}acetonitrile]
2.6 | N#CCC1(n2cc(-c3ncnc4[nH]ccc34)cn2)CN(C2CCN(C(=O)C3(c4ccc(Cl)cc4)CC3)CC2)C1 [Example 111, {1-(1-{[1-(4-chlorophenyl)cyclopropyl]carbonyl}piperidin-4-yl)-3-[4-(7H-pyrrolo [2,3-d]pyrimidin-4-yl)-1H-pyrazol-1-yl]azetidin-3-yl}acetonitrile]
8.2 | N#CCC1(n2cc(-c3ncnc4[nH]ccc34)cn2)CN(C2CCN(C(=O)Cc3c(Cl)cccc3Cl)CC2)C1 [Example 112, {1-{1-[(2,6-dichlorophenyl)acetyl]piperidin-4-yl}-3-[4-(7H-pyrrolo[2,3-d]pyrimidin-4-yl)-1H-pyrazol-1-yl]azetidin-3-yl} acetonitrile]
4.2 | Cc1cc(C)c(CC(=O)N2CCC(N3CC(CC#N)(n4cc(-c5ncnc6[nH]ccc56)cn4)C3)CC2)c(C)c1 [Example 113, {1-[1-(mesitylacetyl)piperidin-4-yl]-3-[4-(7H-pyrrolo[2,3-d]pyrimidin-4-yl)-1H-pyrazol-1-yl]azetidin-3-yl} acetonitrile]
1.5 | N#CCC1(n2cc(-c3ncnc4[nH]ccc34)cn2)CN(C2CCN(C(=O)c3ccc(-c4ccccc4)cc3)CC2)C1 [Example 114, {1-[1-(biphenyl-4-ylcarbonyl)piperidin-4-yl]-3-[4-(7H-pyrrolo[2,3-d]pyrimidin-4-yl)-1H-pyrazol-1-yl]azetidin-3-yl}acetonitrile]
10.0 | N#CCC1(n2cc(-c3ncnc4[nH]ccc34)cn2)CN(C2CCN(C(=O)c3ccc(-c4ccncc4)c(F)c3)CC2)C1 [Example 117, {1-[1-(3-fluoro-4-pyridin-4-ylbenzoyl)piperidin-4-yl]-3-[4-(7H-pyrrolo[2,3-d]pyrimidin-4-yl)-1H-pyrazol-1-yl]azetidin-3-yl} acetonitrile]
14.0 | N#CCC1(n2cc(-c3ncnc4[nH]ccc34)cn2)CN(C2CCN(C(=O)c3ccc(-c4ccc(C#N)c(F)c4)c(F)c3)CC2)C1 [Example 119, 4′-[(4-{3-(cyanomethyl)-3-[4-(7H-pyrrolo[2,3-d]pyrimidin-4-yl)-1H-pyrazol-1-yl]azetidin-1-yl}piperidin-1-yl)carbonyl]-2′,3-difluorobiphenyl-4-carbonitrile]
3.8 | N#CCC1(n2cc(-c3ncnc4[nH]ccc34)cn2)CN(C2CCN(C(=O)c3ccc(-c4cccnc4)c(F)c3)CC2)C1 [Example 123, {1-[1-(3-fluoro-4-pyridin-3-ylbenzoyl)piperidin-4-yl]-3-[4-(7H-pyrrolo[2,3-d]pyrimidin-4-yl)-1H-pyrazol-1-yl]azetidin-3-yl} acetonitrile]
8.4 | N#CCC1(n2cc(-c3ncnc4[nH]ccc34)cn2)CN(C2CCN(C(=O)c3ccc(-c4ccccc4C#N)c(F)c3)CC2)C1 [Example 124, 4′-[(4-{3-(cyanomethyl)-3-[4-(7H-pyrrolo[2,3-d]pyrimidin-4-yl)-1H-pyrazol-1-yl]azetidin-1-yl}piperidin-1-yl)carbonyl]-2′-fluorobiphenyl-2-carbonitrile]
8.1 | N#CCC1(n2cc(-c3ncnc4[nH]ccc34)cn2)CN(C2CCN(C(=O)c3ccc(-c4cccc(C#N)c4)c(F)c3)CC2)C1 [Example 125, 4′-[(4-{3-(cyanomethyl)-3-[4-(7H-pyrrolo[2,3-d]pyrimidin-4-yl)-1H-pyrazol-1-yl]azetidin-1-yl}piperidin-1-yl)carbonyl]-2′-fluorobiphenyl-3-carbonitrile]
6.3 | N#CCC1(n2cc(-c3ncnc4[nH]ccc34)cn2)CN(C2CCN(C(=O)c3ccc(-c4ccc(C#N)cc4)cc3)CC2)C1 [Example 126, 4′-[(4-{3-(cyanomethyl)-3-[4-(7H-pyrrolo[2,3-d]pyrimidin-4-yl)-1H-pyrazol-1-yl]azetidin-1-yl}piperidin-1-yl)carbonyl]biphenyl-4-carbonitrile]
4.3 | N#CCC1(n2cc(-c3ncnc4[nH]ccc34)cn2)CN(C2CCN(C(=O)c3ccc(-c4ccc(F)c(F)c4)c(F)c3)CC2)C1 [Example 127, (3-[4-(7H-pyrrolo[2,3-d]pyrimidin-4-yl)-1H-pyrazol-1-yl]-1-{1-[(2,3′,4′-trifluorobiphenyl-4-yl)carbonyl]piperidin-4-yl}azetidin-3-yl) acetonitrile]
3.5 | N#CCC1(n2cc(-c3ncnc4[nH]ccc34)cn2)CN(C2CCN(C(=O)c3ccc(-c4cc(F)cc(C#N)c4)c(F)c3)CC2)C1 [Example 128, 4′-[(4-{3-(cyanomethyl)-3-[4-(7H-pyrrolo[2,3-d]pyrimidin-4-yl)-1H-pyrazol-1-yl]azetidin-1-yl}piperidin-1-yl)carbonyl]-2′,5-difluorobiphenyl-3-carbonitrile]
7.9 | N#CCC1(n2cc(-c3ncnc4[nH]ccc34)cn2)CN(C2CCN(C(=O)c3ccc(-c4cccc5ncccc45)c(F)c3)CC2)C1 [Example 129, {1-[1-(3-fluoro-4-quinolin-5-ylbenzoyl)piperidin-4-yl]-3-[4-(7H-pyrrolo[2,3-d]pyrimidin-4-yl)-1H-pyrazol-1-yl]azetidin-3-yl} acetonitrile]
7.1 | N#CCC1(n2cc(-c3ncnc4[nH]ccc34)cn2)CN(C2CCN(C(=O)c3ccc(-c4cccc5cnccc45)c(F)c3)CC2)C1 [Example 130, {1-[1-(3-fluoro-4-isoquinolin-5-ylbenzoyl)piperidin-4-yl]-3-[4-(7H-pyrrolo[2,3-d]pyrimidin-4-yl)-1H-pyrazol-1-yl]azetidin-3-yl}acetonitrile]
8.1 | N#CCC1(n2cc(-c3ncnc4[nH]ccc34)cn2)CN(C2CCN(C(=O)c3ccc(-c4cccc5ccncc45)c(F)c3)CC2)C1 [Example 131, {1-[1-(3-fluoro-4-isoquinolin-8-ylbenzoyl)piperidin-4-yl]-3-[4-(7H-pyrrolo[2,3-d]pyrimidin-4-yl)-1H-pyrazol-1-yl]azetidin-3-yl} acetonitrile]
7.9 | N#CCC1(n2cc(-c3ncnc4[nH]ccc34)cn2)CN(C2CCN(C(=O)c3ccc(-c4ccc5ccncc5c4)c(F)c3)CC2)C1 [Example 133, {1-[1-(3-fluoro-4-isoquinolin-7-ylbenzoyl)piperidin-4-yl]-3-[4-(7H-pyrrolo[2,3-d]pyrimidin-4-yl)-1H-pyrazol-1-yl]azetidin-3-yl} acetonitrile]
6.7 | N#CCC1(n2cc(-c3ncnc4[nH]ccc34)cn2)CN(C2CCN(C(=O)c3ccc(-c4ccc5cccnc5c4)c(F)c3)CC2)C1 [Example 134, {1-[1-(3-fluoro-4-quinolin-7-ylbenzoyl)piperidin-4-yl]-3-[4-(7H-pyrrolo[2,3-d]pyrimidin-4-yl)-1H-pyrazol-1-yl]azetidin-3-yl} acetonitrile]
7.1 | N#CCC1(n2cc(-c3ncnc4[nH]ccc34)cn2)CN(C2CCN(C(=O)c3ccc(-c4ccc5nccn5c4)c(F)c3)CC2)C1 [Example 135, {1-[1-(3-fluoro-4-imidazo[1,2-a]pyridin-6-ylbenzoyl)piperidin-4-yl]-3-[4-(7H-pyrrolo[2,3-d]pyrimidin-4-yl)-1H-pyrazol-1-yl]azetidin-3-yl} acetonitrile]
5.6 | N#CCC1(n2cc(-c3ncnc4[nH]ccc34)cn2)CN(C2CCN(C(=O)c3ccc(-c4nc5ccccc5o4)cc3)CC2)C1 [Example 136, {1-{1-[4-(1,3-benzoxazol-2-yl)benzoyl]piperidin-4-yl}-3-[4-(7H-pyrrolo[2,3-d]pyrimidin-4-yl)-1H-pyrazol-1-yl]azetidin-3-yl}acetonitrile]
